Experimental data from patent US20230364032A1, “USE OF 2-HOBA TO TREAT ATHEROSCLEROSIS” (Vanderbilt University, priority 2020, published 2023).

How the values were obtained:
[1] = tested on: atherosclerotic lesions of Ldlr−/− mice; assay: Masson's Trichrome staining of lesions (collagen, fibrous cap, necrotic area); assay type: in vivo, mouse
Text: Masson's Trichrome Staining was applied for measurement of atherosclerotic lesion collagen content, fibrous cap thickness and necrotic core size following the manufacturer's instructions (Sigma) and as previously described^30. Briefly, 5 μm cross-sections of proximal atherosclerotic aorta root were fixed with Bouin's solution, stained with hematoxylin for nuclei (black) and biebrich scarlet and phosphotungstic/phosphomolybdic acid for cytoplasm (red), and aniline blue for collagen (blue). Images were captured and analyzed for collagen content, atherosclerotic cap thickness and necrotic core by ImageJ software as described previously^30. The necrotic area is normalized to the total lesion area and is expressed as the % necrotic area.

[2] = tested on: aortic endothelial cells; assay: H2O2-induced apoptosis of endothelial cells (Annexin V); assay type: cell-based, mouse; conditions: 250 μM H2O2, 24 h, 500 μM compound; compared to vehicle or 4-HOBA
Procedure: (6A and 6B) Mouse aortic endothelial cells (6A) or primary macrophages (6B) were incubated for 24 h with 250 μM H2O2 alone or with either 4-HOBA or 2-HOBA (500 μM). Apoptotic cells were then detected by Annexin V staining and flow cytometry. (6C to 6H) The mRNA levels of IL-1β, IL-6, and TNF-α were analyzed by real time PCR in the peritoneal macrophages incubated for 24 h with either oxidized LDL (6C-6E) or 250 μM H2O2 (6F-6H) alone or with either 4-HOBA or 2-HOBA (500 μM). (6A to 6H) Data are presented as mean±SEM from three independent experiments, ***p<0.001, One-way ANOVA with Bonferroni's post hoc test.
Peritoneal macrophages were isolated from mice 72 hours post injection of 3% thioglycollate and maintained in DMEM plus 10% fetal bovine serum (FBS, Gibco) as previously described^30. Human aortic endothelial cells (HAECs) were obtained from Lonza and maintained in endothelial cell basal medium-2 plus 1% FBS and essential growth factors (Lonza).
Cell apoptosis was induced as indicated and detected by fluorescent labeled Annexin V staining and quantitated by either Flow Cytometry (BD 5 LSRII) or counting Annexin V positive cells in images captured under a fluorescent microscope. The apoptotic cells in atherosclerotic lesions were measured by TUNEL staining of cross-sections of atherosclerotic proximal aortas as previously described^30. […]

[3] = tested on: WT peritoneal macrophages; assay: Cholesterol enrichment of macrophages by LDL from treated mice; assay type: cell-based, mouse; conditions: LDL from 2-HOBA versus 4-HOBA or vehicle treated Ldlr−/− mice, 24 hrs
Procedure: FIG. 21A-D show the effects of 2-HOBA on plasma and LDL MDA adducts in hypercholesterolemic Ldlr^−/− mice. (20A) The MDA content in plasma from Ldlr^−/− mice consuming a Western diet for 16 weeks and treated with 2-HOBA, 4-HOBA, or vehicle was measured by TBARS Assay(*p<0.05, **p<0.01). (20B) The levels of MDA adducts were measured from LDL isolated from the Ldlr^−/− mice by ELISA. N=10 per group, ***p<0.001. (20C) LDL was isolated from control and FH subjects (n=6) pre and post LDL apheresis and the MDA adduct content was measured by ELISA. (20D) LDL was isolated from 2-HOBA, 4-HOBA, or vehicle treated hypercholesterolemic Ldlr^−/− mice. WT peritoneal macrophages were incubated for 24 hrs with the LDL and the cellular cholesterol content was measured as described in methods. (20A-D) One-way ANOVA with Bonferroni's post hoc test).
MDA was prepared immediately before use by rapid acid hydrolysis of maloncarbonyl bis-(dimethylacetal) as described^31. Briefly, 20 μL of 1 M HCl was added to 200 μL of maloncarbonyl bis-(dimethylacetal), and the mixture was incubated for 45 min at room temperature. The MDA concentration was determined by absorbance at 245 nm, using the coefficient factor 13, 700 M^−1 cm^−1. […] The LDL samples were incubated for 24 h with macrophages and the cholesterol content of the cells was measured using an enzymatic cholesterol assay as described^61.

NCc1ccccc1O [2-HOBA, 2-hydroxybenzylamine]
features of stable atherosclerotic plaques [1]: promotes features of stable atherosclerotic plaques | increase of collagen content of the proximal aorta ([1]; compared to 4-HOBA): 2.6 fold | increase of collagen content of the proximal aorta ([1]; compared to vehicle): 2.7 fold | decrease of % of necrotic area in the proximal aorta ([1]; versus 4-HOBA): 73.5% | fibrous cap thickness, fold greater ([1]; versus 4-HOBA): 2.29 fold | number of apoptotic cells, endothelial cell cultures [2]: markedly decreased | ability of LDL from treated mice to enrich cells with cholesterol [3]: not different
